This is an account of results in patent US20090311217A1, “3-SUBSTITUTED-1H-INDOLE COMPOUNDS, THEIR USE AS MTOR KINASE AND PI3 KINASE INHIBITORS, AND THEIR SYNTHESES” (priority 2008, published 2009).

One may read the melting point as the temperature, or range, at which the solid turns liquid. What is called IC50 is the point on the concentration scale where inhibition reaches its midpoint.

The target of series [1] is T1, human TOR (Homo sapiens, UniProt P42345).
T1 construct: FLAG
In words: mTOR enzyme assay (DELFIA, His6-S6K substrate). The series is classed as biochemical. Conditions: read-out: mTOR Kinase Avg. IC50.

Series [2] deals with PI3K-alpha (Homo sapiens, UniProt P42336). In words: PI3K-alpha fluorescence polarization assay. The series is classed as biochemical. On the technique in general: Fluorescence polarisation rises when a labelled molecule tumbles more slowly, as on binding a larger partner.
Sequence of PI3K-alpha (P42336 whole entry, species assumed, the tested form may be a part): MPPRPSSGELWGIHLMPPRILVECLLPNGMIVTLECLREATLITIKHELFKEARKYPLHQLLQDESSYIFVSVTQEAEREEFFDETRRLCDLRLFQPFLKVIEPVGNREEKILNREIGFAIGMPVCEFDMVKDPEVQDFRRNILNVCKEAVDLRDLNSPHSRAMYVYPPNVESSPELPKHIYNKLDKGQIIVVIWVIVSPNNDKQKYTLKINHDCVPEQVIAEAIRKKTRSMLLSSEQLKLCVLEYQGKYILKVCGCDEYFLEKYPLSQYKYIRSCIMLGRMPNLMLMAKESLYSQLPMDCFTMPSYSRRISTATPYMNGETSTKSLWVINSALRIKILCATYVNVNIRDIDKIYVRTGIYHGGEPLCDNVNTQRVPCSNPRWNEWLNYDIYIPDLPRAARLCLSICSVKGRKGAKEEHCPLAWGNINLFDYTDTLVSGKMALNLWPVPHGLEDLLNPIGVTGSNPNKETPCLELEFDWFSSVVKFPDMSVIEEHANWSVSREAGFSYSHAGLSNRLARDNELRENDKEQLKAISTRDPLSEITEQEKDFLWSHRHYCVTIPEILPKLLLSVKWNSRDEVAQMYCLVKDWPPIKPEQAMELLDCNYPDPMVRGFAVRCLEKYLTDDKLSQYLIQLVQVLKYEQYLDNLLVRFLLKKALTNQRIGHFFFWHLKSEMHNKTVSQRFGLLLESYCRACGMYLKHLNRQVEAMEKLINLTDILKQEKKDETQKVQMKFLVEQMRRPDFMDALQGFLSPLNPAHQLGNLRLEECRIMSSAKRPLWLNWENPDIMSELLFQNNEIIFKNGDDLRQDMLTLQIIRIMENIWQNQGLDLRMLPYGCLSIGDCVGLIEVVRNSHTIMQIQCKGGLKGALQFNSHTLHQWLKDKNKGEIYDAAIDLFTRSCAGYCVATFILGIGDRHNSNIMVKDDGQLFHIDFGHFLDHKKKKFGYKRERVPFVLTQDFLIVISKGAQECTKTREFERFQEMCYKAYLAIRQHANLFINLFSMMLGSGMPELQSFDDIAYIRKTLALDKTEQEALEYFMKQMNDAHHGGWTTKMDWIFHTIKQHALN
Sequence of PI3K-alpha (P27986 whole entry partner, species assumed, the tested form may be a part): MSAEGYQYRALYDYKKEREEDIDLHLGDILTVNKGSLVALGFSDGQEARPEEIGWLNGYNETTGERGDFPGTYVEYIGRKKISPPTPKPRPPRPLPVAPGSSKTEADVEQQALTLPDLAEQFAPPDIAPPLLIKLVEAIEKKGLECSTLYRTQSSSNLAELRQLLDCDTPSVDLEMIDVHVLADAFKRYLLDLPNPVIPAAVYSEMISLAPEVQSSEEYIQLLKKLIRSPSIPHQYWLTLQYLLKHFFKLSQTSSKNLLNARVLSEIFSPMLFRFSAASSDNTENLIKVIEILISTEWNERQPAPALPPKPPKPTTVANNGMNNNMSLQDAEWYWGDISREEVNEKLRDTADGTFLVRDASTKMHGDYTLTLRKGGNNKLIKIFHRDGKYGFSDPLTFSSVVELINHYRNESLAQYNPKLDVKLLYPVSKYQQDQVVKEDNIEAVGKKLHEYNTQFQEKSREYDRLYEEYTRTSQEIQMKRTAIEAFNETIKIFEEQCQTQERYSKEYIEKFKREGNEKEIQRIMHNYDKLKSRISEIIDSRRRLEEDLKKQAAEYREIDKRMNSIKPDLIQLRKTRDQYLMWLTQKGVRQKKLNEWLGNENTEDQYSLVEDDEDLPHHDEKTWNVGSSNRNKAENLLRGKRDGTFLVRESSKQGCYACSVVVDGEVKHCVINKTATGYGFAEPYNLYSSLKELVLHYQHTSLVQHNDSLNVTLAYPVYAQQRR
For series [3], the target named is PI3K-gamma (Homo sapiens, UniProt P48736). Put plainly: PI3K-gamma fluorescence polarization assay. In kind it is biochemical. Conditions: PI3Kγ Avg. IC50. The method, boiled down: (§1)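 Reactions used 5 ng enzyme with 2.5 μM diC8-PI(4,5)P2 and 25 μM ATP in 5 mM HEPES pH 7, 2.5 mM MgCl2, run 1 h at 25° C. After an EDTA quench (10 mM), 100 nM GST-GRP1 PH domain and 5 nM BODIPY-TMR-IP4 were added and fluorescence polarization was read.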
Sequence of PI3K-gamma (P48736 whole entry, species assumed, the tested form may be a part): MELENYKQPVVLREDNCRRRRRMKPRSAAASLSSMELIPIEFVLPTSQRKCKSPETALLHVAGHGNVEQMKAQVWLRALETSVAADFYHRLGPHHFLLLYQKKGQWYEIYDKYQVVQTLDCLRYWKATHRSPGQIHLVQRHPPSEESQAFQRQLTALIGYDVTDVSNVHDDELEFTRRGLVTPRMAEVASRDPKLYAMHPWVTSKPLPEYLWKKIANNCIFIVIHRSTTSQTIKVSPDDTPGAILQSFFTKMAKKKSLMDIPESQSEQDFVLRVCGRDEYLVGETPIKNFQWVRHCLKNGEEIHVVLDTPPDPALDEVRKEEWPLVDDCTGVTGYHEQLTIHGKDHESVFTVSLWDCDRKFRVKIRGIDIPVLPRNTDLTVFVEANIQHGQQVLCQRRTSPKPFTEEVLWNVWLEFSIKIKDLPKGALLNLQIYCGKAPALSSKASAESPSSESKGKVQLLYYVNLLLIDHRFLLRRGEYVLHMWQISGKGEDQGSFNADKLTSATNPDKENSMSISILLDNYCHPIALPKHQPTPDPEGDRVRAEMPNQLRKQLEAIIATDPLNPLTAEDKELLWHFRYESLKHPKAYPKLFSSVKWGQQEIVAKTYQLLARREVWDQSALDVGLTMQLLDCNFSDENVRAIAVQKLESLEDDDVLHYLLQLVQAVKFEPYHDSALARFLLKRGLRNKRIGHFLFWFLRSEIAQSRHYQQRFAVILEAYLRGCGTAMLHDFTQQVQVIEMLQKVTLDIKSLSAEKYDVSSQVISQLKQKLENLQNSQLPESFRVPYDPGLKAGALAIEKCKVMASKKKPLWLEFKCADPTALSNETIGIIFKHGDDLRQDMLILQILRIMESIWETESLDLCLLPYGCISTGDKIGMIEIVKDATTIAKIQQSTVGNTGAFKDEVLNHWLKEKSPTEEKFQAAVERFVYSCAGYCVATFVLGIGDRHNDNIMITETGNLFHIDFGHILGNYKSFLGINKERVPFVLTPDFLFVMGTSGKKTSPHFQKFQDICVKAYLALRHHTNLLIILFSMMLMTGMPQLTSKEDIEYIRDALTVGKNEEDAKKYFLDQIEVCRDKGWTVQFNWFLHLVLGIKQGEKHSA

In series [4] the test system is human tumor xenograft models. The following applies: cited from earlier work.
Series [5] relates to acute lymphoblastic leukemia. The following applies: in vivo; cited from earlier work.
In series [6] the target is mTOR (Homo sapiens, UniProt P42345). Conditions: mTOR enzymes; cited from earlier work.
The target in series [7] is PI3K-delta (Homo sapiens, UniProt O00329). Put plainly: PI3K-delta fluorescence polarization assay. In kind it is biochemical.
Sequence of PI3K-delta (O00329 whole entry, species assumed): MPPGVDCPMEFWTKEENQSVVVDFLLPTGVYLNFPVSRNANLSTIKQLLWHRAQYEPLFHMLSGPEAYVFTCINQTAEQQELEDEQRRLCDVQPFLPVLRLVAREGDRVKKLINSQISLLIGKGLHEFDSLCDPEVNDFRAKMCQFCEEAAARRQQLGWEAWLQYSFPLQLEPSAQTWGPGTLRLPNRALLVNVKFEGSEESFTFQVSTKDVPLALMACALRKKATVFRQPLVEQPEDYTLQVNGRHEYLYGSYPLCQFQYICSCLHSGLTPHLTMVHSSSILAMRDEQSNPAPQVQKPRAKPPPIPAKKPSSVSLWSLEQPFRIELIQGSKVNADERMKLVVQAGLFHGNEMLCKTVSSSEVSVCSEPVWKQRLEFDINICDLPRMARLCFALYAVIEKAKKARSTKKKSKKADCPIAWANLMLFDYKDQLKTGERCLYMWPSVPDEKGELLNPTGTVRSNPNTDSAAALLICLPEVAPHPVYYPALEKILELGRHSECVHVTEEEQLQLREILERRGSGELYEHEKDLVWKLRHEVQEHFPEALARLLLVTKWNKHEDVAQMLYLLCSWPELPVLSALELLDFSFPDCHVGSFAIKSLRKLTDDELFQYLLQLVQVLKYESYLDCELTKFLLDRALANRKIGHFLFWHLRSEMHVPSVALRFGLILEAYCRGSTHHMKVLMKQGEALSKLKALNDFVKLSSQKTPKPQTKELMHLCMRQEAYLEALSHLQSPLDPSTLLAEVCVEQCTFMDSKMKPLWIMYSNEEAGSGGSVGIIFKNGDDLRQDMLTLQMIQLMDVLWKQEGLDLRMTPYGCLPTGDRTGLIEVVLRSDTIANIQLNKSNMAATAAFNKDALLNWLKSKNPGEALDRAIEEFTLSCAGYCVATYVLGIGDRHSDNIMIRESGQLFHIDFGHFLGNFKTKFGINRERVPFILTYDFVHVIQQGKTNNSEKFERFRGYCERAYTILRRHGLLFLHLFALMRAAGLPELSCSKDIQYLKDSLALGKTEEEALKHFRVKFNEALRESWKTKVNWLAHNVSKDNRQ
Sequence of PI3K-delta (P27986 whole entry partner, species assumed): as the sequence (P27986 whole entry partner, species assumed, the tested form may be a part) above
Series [8] addresses PI3K-beta (Homo sapiens, UniProt P42338). Put plainly: PI3K-beta fluorescence polarization assay. In kind it is biochemical. Conditions: read-out: PI3Kβ Avg. IC50. The method, boiled down: as §1

Structures are written as SMILES. Where two headings read alike, the source gives them in different places. Bounds are passed on as bounds.

Sequence of PI3K-beta (P42338 whole entry, species assumed): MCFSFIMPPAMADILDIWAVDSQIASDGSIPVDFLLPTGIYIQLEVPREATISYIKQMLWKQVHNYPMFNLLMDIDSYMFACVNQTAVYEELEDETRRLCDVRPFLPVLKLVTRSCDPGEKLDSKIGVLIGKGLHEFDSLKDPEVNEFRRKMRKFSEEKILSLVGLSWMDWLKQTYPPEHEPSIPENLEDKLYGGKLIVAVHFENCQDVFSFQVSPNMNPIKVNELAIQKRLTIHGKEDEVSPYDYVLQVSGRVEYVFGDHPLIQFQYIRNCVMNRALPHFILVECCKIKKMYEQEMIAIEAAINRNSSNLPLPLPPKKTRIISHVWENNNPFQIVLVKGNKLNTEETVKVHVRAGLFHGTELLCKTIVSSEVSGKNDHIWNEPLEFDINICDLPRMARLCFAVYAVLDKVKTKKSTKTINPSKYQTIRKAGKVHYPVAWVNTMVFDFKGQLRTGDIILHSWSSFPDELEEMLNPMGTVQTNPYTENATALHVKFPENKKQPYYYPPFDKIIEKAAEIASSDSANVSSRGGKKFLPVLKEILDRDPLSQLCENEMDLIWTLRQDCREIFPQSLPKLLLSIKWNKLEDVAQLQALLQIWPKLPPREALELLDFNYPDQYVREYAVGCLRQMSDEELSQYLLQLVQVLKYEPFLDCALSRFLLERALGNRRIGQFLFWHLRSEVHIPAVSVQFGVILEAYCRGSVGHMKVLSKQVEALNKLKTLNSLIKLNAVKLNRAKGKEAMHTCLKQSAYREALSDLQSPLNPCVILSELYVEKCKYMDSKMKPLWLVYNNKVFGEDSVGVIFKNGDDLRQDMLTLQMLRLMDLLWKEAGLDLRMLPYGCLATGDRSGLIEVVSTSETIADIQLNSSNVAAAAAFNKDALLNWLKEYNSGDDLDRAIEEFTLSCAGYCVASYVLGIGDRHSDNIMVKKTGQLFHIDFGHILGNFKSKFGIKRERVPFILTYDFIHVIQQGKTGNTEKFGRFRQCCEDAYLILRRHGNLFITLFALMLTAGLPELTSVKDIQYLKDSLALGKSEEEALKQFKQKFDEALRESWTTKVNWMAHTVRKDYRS
Sequence of PI3K-beta (P27986 whole entry partner, species assumed): as the sequence (P27986 whole entry partner, species assumed, the tested form may be a part) above

`COc1cc(OC)c2c(c1)O/C(=C\c1c(-c3ccccc3)n(C)c3ccccc13)C2=O` [Example 409, (2Z)-4,6-dimethoxy-2-[(1-methyl-2-phenyl-1H-indol-3-yl)methylene]benzofuran-3(2H)-one] showed a melting point of 257 to 258 °C. The 50% inhibitory concentration (IC50) in [1] is above 20000 nM. For the same molecule, the half-inhibitory concentration (IC50) in series [2] (read-out: PI3Kα Avg. IC50) is above 10000 nM. This molecule returned an IC50 in series [3] of 1990 nM.

Regarding `Oc1cccc(-c2nc(N3CCOCC3)c3oc4ncccc4c3n2)c1` [PI103, 3-(4-(4-morpholinyl)pyrido[3′,2′:4,5]furo[3,2-d]pyrimidin-2-yl)phenol], the “activity in human tumor xenograft models” value in series [4] (I.P. dosing in mice, U87MG, PC3, MDA-MB-468, MDA-MB-435, HCT 116, SKOV3, IGROV-1) is listed as “demonstrated activity”.

As to `CO[C@H]1C[C@@H]2CC[C@@H](C)[C@@](O)(O2)C(=O)C(=O)N2CCCC[C@H]2C(=O)O[C@H]([C@H](C)C[C@@H]2CC[C@@H](OC(=O)C(C)(CO)CO)[C@H](OC)C2)CC(=O)[C@H](C)/C=C(\C)[C@@H](O)[C@@H](OC)C(=O)[C@H](C)C[C@H](C)/C=C/C=C/C=C/1C` [Torisel], the “activity in NOS/SCID xenograft mouse model of acute lymphoblastic leukemia” value in [5] is “active”.

For the molecule `COc1cc(O)c2c(c1)O/C(=C\c1c(-c3ccccc3)n(C)c3ccccc13)C2=O` [Example 421, (2Z)-4-hydroxy-6-methoxy-2-[(1-methyl-2-phenyl-1H-indol-3-yl)methylene]benzofuran-3(2H)-one], the melting point lay within 221 to 223 °C. Moreover, the IC50 in series [1] was above 20000 nM. Moreover, the half-inhibitory concentration (IC50) in series [2] (read-out: PI3Kα Avg. IC50) is above 10000 nM. Also, the half-maximal inhibitory concentration (IC50) in [3] is above 10000 nM.

As for `COc1ccc(-c2cccc3c2c(/C=C2\Oc4cc(O)cc(O)c4C2=O)cn3C)cc1` [Example 376, (2Z)-4,6-dihydroxy-2-{[4-(4-methoxyphenyl)-1-methyl-1H-indol-3-yl]methylene}benzofuran-3(2H)-one], the melting point is 289 to 291 °C (dec.). Further, in [1], the IC50 amounted to 128 nM. Moreover, the half-maximal inhibitory concentration (IC50) in series [2] (read-out: PI3Kα Avg. IC50) turned out to be 2080 nM. In series [3], this molecule yielded an IC50 of 3800 nM.

As for `FC(F)c1nc2ccccc2n1-c1nc(N2CCOCC2)nc(N2CCOCC2)n1` [ZSTK474, 2-(2-difluoromethylbenzoimidazol-1-yl)-4,6-dimorpholino-1,3,5-triazine], the “tumor growth in mouse human xenograft cancer models” value in series [4] (chronic oral administration, 400 mg/kg, A549, PC-3, WiDr) is listed as “completely inhibited growth”. In series [6], the concentration for half-maximal inhibition (IC50) is above 10 µM.

As to `O=C1C(=Cc2c(-c3ccccc3)[nH]c3ccccc23)Oc2cc(O)cc(O)c21` [Example 14, 4,6-dihydroxy-2-[(2-phenyl-1H-indol-3-yl)methylene]-1-benzofuran-3(2H)-one], the IC50 in series [7] (read-out: PI3Kδ Avg. IC50) stood at 381 nM; in series [1], 130 nM; in series [8], 736 nM; in series [2] (PI3Kα Avg. IC50), 1030 nM; in series [3], 2780 nM.

As to `COc1ccc2c(c1)c(C=C1Oc3cc(O)cc(O)c3C1=O)c(C)n2CCCN1CCOCC1` [Example 102, 4,6-dihydroxy-2-{[5-methoxy-2-methyl-1-(3-morpholin-4-ylpropyl)-1H-indol-3-yl]methylene}-1-benzofuran-3(2H)-one], the IC50 in series [7] (read-out: PI3Kδ Avg. IC50) was 1.9 nM; in series [1] it was below 25 nM; in series [8], 45 nM; in [2] (read-out: PI3Kα Avg. IC50), 8.5 nM; in [3], 75.5 nM.

In the case of `COc1ccc2c(c1)c(/C=C1\Oc3cc(O)cc(O)c3C1=O)c(C1CC1)n2CCN1CCN(C)CC1` [Example 302, (2Z)-2-({2-Cyclopropyl-5-methoxy-1-[2-(4-methylpiperazin-1-yl)ethyl]-1H-indol-3-yl}methylene)-4,6-dihydroxy-1-benzofuran-3(2H)-one], the concentration for half-maximal inhibition (IC50) in series [7] (read-out: PI3Kδ Avg. IC50) was below 2.5 nM; in series [1] it was 300 nM; in series [8] it was 14 nM; in series [2] (read-out: PI3Kα Avg. IC50), 17 nM; in series [3], 764 nM.

For the molecule `COc1ccc2[nH]c(-c3cccnc3)c(C=C3Oc4cc(O)cc(O)c4C3=O)c2c1` [Example 91, 4,6-dihydroxy-2-[(5-methoxy-2-pyridin-3-yl-1H-indol-3-yl)methylene]-1-benzofuran-3(2H)-one], the 50% inhibitory concentration (IC50) in series [7] (read-out: PI3Kδ Avg. IC50) is 1.8 nM; in series [1] it was below 50 nM; in series [8] it was 5.5 nM; in series [2] (read-out: PI3Kα Avg. IC50), below 2.2 nM; in series [3], 9.5 nM.

In the case of `COc1cc2c(C=C3Oc4cc(O)cc(O)c4C3=O)c(C)n(C)c2cc1C` [Example 185, 4,6-dihydroxy-2-[(5-methoxy-1,2,6-trimethyl-1H-indol-3-yl)methylene]-1-benzofuran-3(2H)-one], the concentration for half-maximal inhibition (IC50) amounted to 38 nM in series [7] (read-out: PI3Kδ Avg. IC50); 130 nM in [1]; 96.5 nM in [8]; 32.3 nM in series [2] (read-out: PI3Kα Avg. IC50); 403 nM in series [3].

Take `COc1ccc2c(c1)c(C=C1Oc3cc(O)cc(O)c3C1=O)c(C)n2CCCCN1CCC(N(C)C)C1` (stereo not drawn) [Example 99, 2-[(1-{4-[3-(dimethylamino)pyrrolidin-1-yl]butyl}-5-methoxy-2-methyl-1H-indol-3-yl)methylene]-4,6-dihydroxy-1-benzofuran-3(2H)-one]: the 50% inhibitory concentration (IC50) in series [7] (read-out: PI3Kδ Avg. IC50) came to 2 nM; in series [1] it was 72.5 nM; in series [8], 8 nM; in [2] (read-out: PI3Kα Avg. IC50), 8.3 nM; in series [3] it was 331 nM.

In the case of `Cn1c(=O)n(-c2ccc(C(C)(C)C#N)cc2)c2c3cc(-c4cnc5ccccc5c4)ccc3ncc21` [NVP-BEZ-235, 2-methyl-2-(4-(3-methyl-2-oxo-8-(quinolin-3-yl)-2,3-dihydro-1H-imidazo[4,5-c]quinolin-1-yl)phenyl)propanenitrile], the “activity in human tumor xenograft models” value in series [4] (prostrate (PC-3) and glioblastoma (U-87)) is “demonstrated activity”.

`COc1ccc2[nH]c(C)c(C=C3Oc4cc(O)cc(O)c4C3=O)c2c1` [Example 73, 4,6-dihydroxy-2-[(5-methoxy-2-methyl-1H-indol-3-yl)methylene]-1-benzofuran-3(2H)-one]: the IC50 was 5.8 nM in [7] (read-out: PI3Kδ Avg. IC50); 2.7 nM in [1]; 8 nM in series [8]; 2.7 nM in series [2] (read-out: PI3Kα Avg. IC50); 25 nM in series [3].

In the case of `COc1ccc2c(c1)c(/C=C1\Oc3cc(O)cc(O)c3C1=O)c(C)n2CCCN(C)C` [Example 305, (2Z)-2-({1-[3-(Dimethylamino)propyl]-5-methoxy-2-methyl-1H-indol-3-yl}methylene)-4,6-dihydroxy-1-benzofuran-3(2H)-one], the IC50 in series [7] worked out at 5 nM; in series [1], 205 nM; in [8] it was 28.5 nM; in series [2] (PI3Kα Avg. IC50) it was 5 nM; in series [3] it was 228 nM.
